According to the NIST ThermoML archive (doi:10.1016/j.jct.2019.02.011):

Assay: xn = mol fraction of the nth substance listed
Conditions: Liquid, Vibrating tube method

COC(=O)OC [dimethyl carbonate] + CO
mass density [kg/m3]
Conditions	100 kPa	5000 kPa	10000 kPa	15000 kPa	20000 kPa	25000 kPa	30000 kPa	35000 kPa	40000 kPa
293.15 K, x1 = 0.0253	–	–	–	819.01	822.93	826.85	830.45	833.84	837.02
293.15 K, x1 = 0.0503	–	–	–	832.64	836.57	840.49	844.1	847.49	850.69
293.15 K, x1 = 0.0745	–	–	–	845.15	849.09	853.02	856.63	860.04	863.25
293.15 K, x1 = 0.101	–	–	–	858.22	862.17	866.1	869.72	873.13	876.36
293.15 K, x1 = 0.1502	–	–	–	880.67	884.64	888.56	892.2	895.68	898.94
293.15 K, x1 = 0.2059	–	–	–	903.9	907.88	911.86	915.51	919	922.29
293.15 K, x1 = 0.25	–	–	916.63	920.72	924.71	928.69	932.36	935.81	939.11
293.15 K, x1 = 0.3004	–	–	934.21	938.3	942.31	946.29	949.97	953.48	956.8
293.15 K, x1 = 0.3426	–	–	947.86	951.96	955.98	959.96	963.65	967.16	970.51
293.15 K, x1 = 0.3984	–	–	964.54	968.64	972.68	976.66	980.36	983.88	987.25
293.15 K, x1 = 0.4514	–	–	979.07	983.17	987.22	991.16	994.86	998.4	1001.78
293.15 K, x1 = 0.5054	–	–	992.67	996.78	1000.83	1004.77	1008.44	1011.98	1015.38
293.15 K, x1 = 0.5509	–	–	1003.27	1007.38	1011.44	1015.38	1019.05	1022.6	1026.01
293.15 K, x1 = 0.6002	–	–	1013.92	1018.04	1022.11	1026.05	1029.73	1033.28	1036.7
293.15 K, x1 = 0.6469	–	–	1023.3	1027.41	1031.49	1035.43	1039.12	1042.68	1046.11
293.15 K, x1 = 0.6993	–	–	1033.07	1037.19	1041.28	1045.22	1048.91	1052.48	1055.92
293.15 K, x1 = 0.7496	–	–	1041.86	1045.98	1050.08	1054.02	1057.72	1061.24	1064.69
293.15 K, x1 = 0.799	–	–	1050.01	1054.09	1058.13	1062.08	1065.78	1069.31	1072.77
293.15 K, x1 = 0.837	–	–	1055.93	1060.01	1064.06	1068.01	1071.71	1075.29	1078.71
293.15 K, x1 = 0.9093	–	–	1066.58	1070.66	1074.72	1078.67	1082.38	1085.91	1089.35
293.15 K, x1 = 0.9239	–	–	1068.62	1072.7	1076.76	1080.71	1084.42	1087.96	1091.39
293.15 K, x1 = 0.9575	–	–	1073.25	1077.33	1081.4	1085.34	1089.06	1092.6	1096.04
293.15 K, x1 = 0.9861	–	–	1077.09	1081.17	1085.23	1089.18	1092.9	1096.44	1099.94
293.15 K, x1 = 1	–	–	1078.93	1083.01	1087.08	1091.03	1094.75	1098.34	1101.84
298.15 K, x1 = 0.0253	801.12	805.88	810.17	814.5	818.56	–	–	–	–
298.15 K, x1 = 0.0503	814.67	819.42	823.72	828.05	832.13	–	–	–	–
298.15 K, x1 = 0.0745	827.15	831.91	836.21	840.55	844.63	–	–	–	–
298.15 K, x1 = 0.101	840.09	844.85	849.21	853.54	857.59	–	–	–	–
298.15 K, x1 = 0.1502	862.34	867.1	871.47	875.8	879.93	–	–	–	–
298.15 K, x1 = 0.2059	885.36	890.12	894.5	898.84	902.99	–	–	–	–
298.15 K, x1 = 0.25	902	906.75	911.19	915.53	919.64	–	–	–	–
298.15 K, x1 = 0.3004	919.49	924.24	928.68	933.03	937.16	–	–	–	–
298.15 K, x1 = 0.3426	933.01	937.77	942.22	946.56	950.71	–	–	–	–
298.15 K, x1 = 0.3984	949.56	954.26	958.77	963.12	967.28	–	–	–	–
298.15 K, x1 = 0.4514	964.01	968.71	973.22	977.52	981.7	–	–	–	–
298.15 K, x1 = 0.5054	977.58	982.28	986.75	991.05	995.2	–	–	–	–
298.15 K, x1 = 0.5509	988.15	992.8	997.28	1001.58	–	–	–	–	–
298.15 K, x1 = 0.6002	998.73	1003.39	1007.87	1012.12	–	–	–	–	–
298.15 K, x1 = 0.6469	1008.04	1012.69	1017.17	1021.43	–	–	–	–	–
298.15 K, x1 = 0.6993	1017.79	1022.44	1026.93	1031.19	–	–	–	–	–
298.15 K, x1 = 0.7496	1026.56	1031.16	1035.66	1039.91	–	–	–	–	–
298.15 K, x1 = 0.799	1034.65	1039.25	1043.74	1047.95	–	–	–	–	–
298.15 K, x1 = 0.837	1040.55	1045.15	1049.65	1053.86	–	–	–	–	–
298.15 K, x1 = 0.9093	1051.17	1055.73	1060.23	1064.44	–	–	–	–	–
298.15 K, x1 = 0.9239	1053.21	1057.76	1062.27	1066.48	–	–	–	–	–
298.15 K, x1 = 0.9575	1057.78	1062.33	1066.84	1071.05	–	–	–	–	–
298.15 K, x1 = 0.9861	1061.61	1066.16	1070.67	1074.88	–	–	–	–	–
298.15 K, x1 = 1	1063.45	1068	1072.51	1076.72	–	–	–	–	–
